Experimental data as given in US20250145608A1, “KRAS DEGRADING COMPOUNDS COMPRISING ANNULATED 2-AMINO-3-CYANO THIOPHENES” (Boehringer Ingelheim Int'l GmbH Corp., priority 2021, published 2025).

Assays:
Assay type in all cases: cell-based
KRAS4B G12V = biological target: T1, KRAS4B G12V (Homo sapiens, UniProt P01116, G12V); assay: HiBit KRAS4B mutant spectrum degradation assay, KRAS4B G12V in GP5d cells (18 h); conditions: KRAS mutation G12V
T1 construct: HiBit; expressed in transfected cells; host or cells: GP5d cells (ECACC 95090715), stably transduced with lentivirus, CMV promoter
From the text: The therapeutically relevant mutant KRAS constructs (WT, G12C, G12D, G12V, G13D) were obtained by site directed mutagenesis using a KRAS4B WT cDNA construct as a template. GP5d cells (ECACC Cat. No. 95090715) were transduced with lentiviral vectors expressing mutant KRAS4B cDNA under control of a CMV promoter. Stably transduced cells were selected using a neomycin selectable marker encoded on the construct.
To assess PROTAC-mediated degradation of various KRAS mutants, GP5d cells stably transduced with KRAS4B constructs as described above were seeded at 25000 cells per well in 100 μL Dulbecco's Modified Eagle medium (Sigma cat. no. D6429) supplemented with 10% fetal calf serum into white bottom opaque 96 well plates (Perkin Elmer cat no. 5680). Plates were incubated at 37° C., 5% CO2 in a humidified incubator over night to allow the cells to adhere. […] Plates were further incubated at 37° C. for 18 hours. Following incubation, 100 μL per well Promega Nano-Glo HiBit lytic detection reagent mix (Promega Nano-Glo HiBit Lytic Detection System #N3050), prepared according to the manufacturer's instructions in the kit, were added. To allow for adequate cell lysis, plates were incubated on an orbital shaker for 15 min and further incubated 30 min at room temperature. Upon completion of cell lysis, luminescence was measured using an Envision plate reader using the Ultrasensitive Luminescence Protocol for 96 well plates. Luminescence levels were normalized by the values obtained with DMSO-treated samples and plotted as percent of DMSO control. DC50 values were computed using a four parametric logistic model and are reported in nM in Table 65 for representative example (Ex.) compounds of the invention. Dmax values represent the maximal extent of degradation observed and is stated as percent of control (% Ctrl.) treatments in Table 66 for representative example (Ex.) compounds of the invention.

A375 cells = assay: A375 CTG proliferation assay (120 h) (melanoma, wt, B-Raf mutant, negative control); conditions: Homo sapiens, A-375, negative control cell line
Method: A375 CTG Proliferation Assay (120 h) (Melanoma, Wt, B-Raf Mutant, Negative Control)
A375 cells (ATCC CRL-1619) are dispensed into 384-well plates, flat and clear bottom (Greiner, PNr. 781091) at a density of 300 cells per well in 60 μL DMEM (Sigma D6429)+10% Fetal Calf Serum (HyClone, PNr.: SH30084.03) and incubated at 37° C. in a CO2 incubator overnight. The next day, compounds (10 mM stock in DMSO) are added at logarithmic dose series using the HP Digital Dispenser D300 (Tecan), including DMSO controls. Plates are incubated for 120 h, and cell viability is measured using CellTiter-Glo luminescent cell viability reagent (Promega product code G7570). Viability (stated as percent of control) is defined as relative luminescence units RLU of each well divided by the RLU of cells in DMSO controls. IC50 values are determined from viability measurements by non-linear regression using a four-parameter model.

GP5d cells = assay: GP5d cell proliferation assay (colorectal cancer, G12D), 5 days; conditions: Homo sapiens, 120 h
Method in brief: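 Cells in DMEM + 10% FCS received logarithmic compound dilutions (DMSO-normalized) and were grown for 5 days. Viability read by CellTiter-Glo luminescence as percent of DMSO controls, with a T0 reading at compound addition; IC50 from a four-parameter logistic fit.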

T1 sequence (P01116 1-188 isoform P01116-2 G12V): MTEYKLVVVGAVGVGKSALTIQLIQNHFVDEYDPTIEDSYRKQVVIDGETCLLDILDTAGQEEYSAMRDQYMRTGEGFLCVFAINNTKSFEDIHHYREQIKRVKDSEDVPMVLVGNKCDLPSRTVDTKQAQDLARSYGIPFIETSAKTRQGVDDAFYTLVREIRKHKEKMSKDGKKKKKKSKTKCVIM

DC50 (KRAS4B G12V) | Dmax at 18 h (KRAS4B G12V) | IC50 (A375 cells) | IC50 (GP5d cells) | SMILES
2.5 nM | 90.8 % Ctrl. | ≥ 3000 nM | – | Cc1ncsc1-c1ccc([C@@H](NC(=O)[C@@H]2C[C@@H](O)CN2C(=O)[C@H](C(C)C)n2cc(OCCCCN3CCCN(c4nccc(-c5noc([C@@]6(C)CCCc7sc(N)c(C#N)c76)n5)n4)[C@@H](C)C3)nn2)[C@H](C)O)cc1 (single isomer, unassigned) [I-41]
8.7 nM | 89.2 % Ctrl. | ≥ 3000 nM | – | Cc1ncsc1-c1ccc([C@H](CO)NC(=O)[C@@H]2C[C@@H](O)CN2C(=O)[C@H](C(C)C)n2cc(OC(C)CCCN3CCCN(c4nccc(-c5noc([C@@]6(C)CCCc7sc(N)c(C#N)c76)n5)n4)[C@@H](C)C3)nn2)cc1 (stereo partly shown) [I-31]
3.5 nM | 90.5 % Ctrl. | ≥ 3000 nM | – | Cc1ncsc1-c1ccc([C@H](CO)NC(=O)[C@@H]2C[C@@H](O)CN2C(=O)[C@H](C(C)C)n2cc(OCCCCN3CCCN(c4nccc(-c5noc([C@@]6(C)CCCc7sc(N)c(C#N)c76)n5)n4)[C@@H](C)C3)nn2)cc1 [I-29]
– | – | ≥ 3000 nM | – | Cc1ncsc1-c1ccc([C@H](CCO)NC(=O)[C@@H]2C[C@@H](O)CN2C(=O)[C@H](C(C)C)n2cc(OCCCCN3CCCN(c4nccc(-c5noc([C@@]6(C)CCCc7sc(N)c(C#N)c76)n5)n4)[C@@H](C)C3)nn2)cc1 [I-38]
2.2 nM | 91.0 % Ctrl. | ≥ 3000 nM | – | Cc1ncsc1-c1ccc([C@H](CO)NC(=O)[C@@H]2C[C@@H](O)CN2C(=O)[C@H](C(C)C)n2cc(OCCCC(C)N3CCCN(c4nccc(-c5noc([C@@]6(C)CCCc7sc(N)c(C#N)c76)n5)n4)[C@@H](C)C3)nn2)cc1 (stereo partly shown) [I-30]
– | – | 1090 nM | – | Cc1ncsc1-c1ccc([C@H](C)NC(=O)[C@@H]2C[C@@H](O)CN2C(=O)C(C(C)C)n2cc(OCCCCN3CCCN(c4nccc(-c5noc([C@@]6(C)CCCc7sc(N)c(C#N)c76)n5)n4)[C@@H](C)C3)nn2)cc1 (stereo partly shown) [I-28]

More lines, now with the values behind:

SMILES | DC50 (KRAS4B G12V) | Dmax at 18 h (KRAS4B G12V) | IC50 (A375 cells) | IC50 (GP5d cells)
Cc1ncsc1-c1ccc([C@@H](NC(=O)[C@@H]2C[C@@H](O)CN2C(=O)[C@H](C(C)C)n2cc(OCCCN3CCCN(c4nccc(-c5noc([C@@]6(C)CCCc7sc(N)c(C#N)c76)n5)n4)[C@@H](C)C3)nn2)[C@H](O)C(C)C)cc1 (single isomer, unassigned) [I-43] | 2.6 nM | 89.4 % Ctrl. | ≥ 3000 nM | –
CC(C)C(C(=O)N1C[C@H](O)C[C@H]1C(=O)NCc1ccc(C#N)cc1)c1cc(OCCCCN2CCCN(c3nccc(-c4noc([C@@]5(C)CCCc6sc(N)c(C#N)c65)n4)n3)[C@@H](C)C2)no1 (stereo partly shown) [I-16] | – | – | ≥ 3000 nM | –
Cc1ncsc1-c1ccc(CNC(=O)[C@@H]2C[C@@H](O)CN2C(=O)[C@@H](c2cc(OCCCCN3CCCN(c4nccc(-c5noc([C@@]6(C)CCCc7sc(N)c(C#N)c76)n5)n4)[C@@H](C)C3)no2)C(C)C)cc1 (single isomer, unassigned) [I-27] | 2.7 nM | 86 % Ctrl. | ≥ 3000 nM | 4 nM
Cc1ncsc1-c1ccc(CNC(=O)[C@@H]2C[C@@H](O)CN2C(=O)C(c2cc(OCCCCN3CCCN(c4nccc(-c5cc([C@@]6(C)CCCc7sc(N)c(C#N)c76)on5)n4)[C@@H](C)C3)no2)C(C)C)cc1 (stereo partly shown) [I-4] | – | – | – | 36.1 nM
Cc1ncsc1-c1ccc(CNC(=O)[C@@H]2C[C@@H](O)CN2C(=O)[C@@H](c2cc(OCCCN3CCCN(c4nccc(-c5noc([C@@]6(C)CCCc7sc(N)c(C#N)c76)n5)n4)[C@@H](C)C3)no2)C(C)C)cc1 (single isomer, unassigned) [I-25] | 3.8 nM | 90.5 % Ctrl. | – | 3.97 nM
Cc1ncsc1-c1ccc(CNC(=O)[C@@H]2C[C@@H](O)CN2C(=O)[C@H](c2cc(OCCCN3CCCN(c4nccc(-c5noc([C@@]6(C)CCCc7sc(N)c(C#N)c76)n5)n4)[C@@H](C)C3)no2)C(C)C)cc1 (single isomer, unassigned) [I-24] | – | – | – | 766 nM
Cc1ncsc1-c1ccc([C@@H](NC(=O)[C@@H]2C[C@@H](O)CN2C(=O)[C@H](C(C)C)n2cc(OCCCCN3CCCN(c4nccc(-c5noc([C@@]6(C)CCCc7sc(N)c(C#N)c76)n5)n4)[C@@H](C)C3)nn2)[C@H](O)C(C)C)cc1 (single isomer, unassigned) [I-45] | – | – | ≥ 3000 nM | –
